Measured values from patent US12637471B2, “Heterocyclic compounds, compositions, methods of preparation and uses thereof” (Organon R&D Finland Ltd, priority 2021, dated 2026).

Assays:
[1] = phase II clinical trial, endometriosis; trial was terminated; cited from earlier work
[2] = target: T1, Recombinant human AKR1C3 (17β-HSD5) protein (Homo sapiens, UniProt P42330); test: Inhibition of AKR1C3 (17β-hydroxysteroid dehydrogenase type 5) enzyme, fluorescence assay; format: biochemical; conditions: inhibitor at 500 nM
T1 construct: made in house; host or cells: E. coli
T1 sequence (P42330 1-323): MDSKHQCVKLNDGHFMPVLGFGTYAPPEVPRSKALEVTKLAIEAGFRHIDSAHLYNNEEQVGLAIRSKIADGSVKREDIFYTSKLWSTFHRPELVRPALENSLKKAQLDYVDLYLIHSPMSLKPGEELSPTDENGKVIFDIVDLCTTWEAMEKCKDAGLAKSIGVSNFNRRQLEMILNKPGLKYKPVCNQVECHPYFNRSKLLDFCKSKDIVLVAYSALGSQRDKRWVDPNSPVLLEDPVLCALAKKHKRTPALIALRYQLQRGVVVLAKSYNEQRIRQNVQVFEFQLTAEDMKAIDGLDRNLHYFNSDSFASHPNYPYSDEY
How it was run: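 E. coli-expressed human AKR1C3 (27 nM) in 20 mM KH2PO4, 1 mM EDTA, pH 7.4, with 1 μM pyranoquinolinone ketone substrate, 1 mM NADPH and inhibitor at 500 nM, 1% DMSO, 60–120 min at RT. Fluorescent alcohol product (ex 420/em 510 nm) quantified against standards; inhibition derived from conversion percentages.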

[3] = target: T2, 17β-Hydroxysteroid Dehydrogenase Type 2 Enzyme (17β-HSD2) (Homo sapiens, UniProt P37059); test: Inhibition of the 17β-hydroxysteroid dehydrogenase type 2 enzyme, 3H-testosterone conversion; format: biochemical; conditions: inhibitor at 10 μM
T2 construct: made in house; host or cells: Sf-9 insect cells (baculovirus)
T2 sequence (P37059 1-387): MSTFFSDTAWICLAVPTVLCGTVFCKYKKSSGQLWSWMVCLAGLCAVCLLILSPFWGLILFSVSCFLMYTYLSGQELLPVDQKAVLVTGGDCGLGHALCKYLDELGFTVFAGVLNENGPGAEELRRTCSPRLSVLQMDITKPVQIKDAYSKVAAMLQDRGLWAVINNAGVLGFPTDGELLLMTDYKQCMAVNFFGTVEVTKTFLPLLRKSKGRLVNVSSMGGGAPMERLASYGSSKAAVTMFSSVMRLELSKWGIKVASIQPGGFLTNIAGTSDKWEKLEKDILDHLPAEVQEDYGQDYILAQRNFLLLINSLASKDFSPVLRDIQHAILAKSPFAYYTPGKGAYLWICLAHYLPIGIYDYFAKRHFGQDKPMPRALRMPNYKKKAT
How it was run: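 Recombinant human 17β-HSD2 (Sf-9/baculovirus; 105 nM) incubated with 56.25 nM ³H-testosterone and 1 mM NAD in 20 mM KH2PO4 pH 8.5, 1 mM EDTA, 1% DMSO, 30 min at RT, inhibitor 10 μM. Reaction stopped with TCA; conversion to ³H-androstenedione by radio-UPLC gives percent inhibition.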

[4] = target: T3, Recombinant human aldo-keto reductase family 1 member C2 (AKR1C2) protein (Homo sapiens, UniProt P52895); test: Inhibition of the aldo-keto reductase family 1 member C2, 3H-dihydrotestosterone conversion; format: biochemical; conditions: inhibitor at 10 μM
T3 construct: made in house; host or cells: Sf-9 insect cells (baculovirus)
T3 sequence (P52895 1-323): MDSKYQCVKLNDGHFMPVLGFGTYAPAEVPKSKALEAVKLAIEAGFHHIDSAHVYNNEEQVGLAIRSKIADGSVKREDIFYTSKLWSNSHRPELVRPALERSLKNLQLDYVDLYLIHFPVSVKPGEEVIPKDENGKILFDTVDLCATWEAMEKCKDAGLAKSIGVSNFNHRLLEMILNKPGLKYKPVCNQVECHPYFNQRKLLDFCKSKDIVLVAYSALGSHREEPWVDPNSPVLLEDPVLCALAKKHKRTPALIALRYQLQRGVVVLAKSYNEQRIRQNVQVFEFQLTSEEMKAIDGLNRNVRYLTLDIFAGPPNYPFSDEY
How it was run: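 Sf-9-expressed enzyme (13.6 nM) incubated 45 min at 37 °C in 20 mM KH2PO4 pH 7.4 with 1 mM NADPH, 6.25 nM [3H]dihydrotestosterone and 10 μM compound (1% DMSO). After TCA stop, substrate and 5α-androstane-3α,17β-diol resolved by UPLC with radio-detection; inhibition from percent conversion.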

Structure (SMILES) | inhibition at 0.5 µM [2] [%] | inhibition at 10 µM [3] [%] | inhibition at 10 µM [4] [%] | bilirubin levels of patients [1]
CN(CCC(=O)O)C(=O)c1ccc2c(c1)CC[C@@H]1[C@@H]2CC[C@]2(C)C(c3cncc(F)c3)=CC[C@@H]12 [BAY-1128688] | – | – | – | raised bilirubin levels
N#CC(=C1CCN(C(=O)N2CCC(O)CC2)CC1)c1n[nH]c2ccccc12 [Compound 70, 2-(1-(4-hydroxypiperidine-1-carbonyl)piperidin-4-ylidene)-2-(1H-indazol-3-yl)acetonitrile] | 97 | 11 | 5 | –
N#CC(=C1CCN(C(=O)N2CCc3[nH]ncc3C2)CC1)c1ccc(OC(F)(F)F)cc1 [Compound 54, 2-(1-(4,5,6,7-tetrahydro-1H-pyrazolo[4,3-c]pyridine-5-carbonyl)piperidin-4-ylidene)-2-(4-(trifluoromethoxy)phenyl)acetonitrile] | 99 | 20 | 15 | –
N#CC(=C1CCN(C(=O)N2CCn3nncc3C2)CC1)c1cccc(Cl)c1 [Compound 155, 2-(3-chlorophenyl)-2-(1-(4,5,6,7-tetrahydro-[1,2,3]triazolo[1,5-a]pyrazine-5-carbonyl)piperidin-4-ylidene)acetonitrile] | 99 | 19 | 21 | –
N#CC(=C1CCN(C(=O)N2CCc3sccc3C2)CC1)c1ccc(OC(F)(F)F)cc1 [Compound 117, 2-(1-(4,5,6,7-tetrahydrothieno[3,2-c]pyridine-5-carbonyl)piperidin-4-ylidene)-2-(4-(trifluoromethoxy)phenyl)acetonitrile] | 94 | 22 | 7 | –
N#CC(=C1CCN(C(=O)N2CCc3sccc3C2)CC1)c1ccc(Cl)s1 [Compound 64, 2-(5-chlorothiophen-2-yl)-2-(1-(4,5,6,7-tetrahydrothieno[3,2-c]pyridine-5-carbonyl)piperidin-4-ylidene)acetonitrile] | 99 | 28 | 19 | –
N#CC(=C1CCN(C(=O)N2CCC(O)CC2)CC1)c1cccc2[nH]ncc12 [Compound 48, 2-(1-(4-hydroxypiperidine-1-carbonyl)piperidin-4-ylidene)-2-(1H-indazol-4-yl)acetonitrile] | 100 | 8 | 0 | –
CCOC1CCN(C(=O)N2CCC(=C(C#N)c3cccc(Cl)c3)CC2)CC1 [Compound 129, 2-(3-chlorophenyl)-2-(1-(4-ethoxypiperidine-1-carbonyl)piperidin-4-ylidene)acetonitrile] | 98 | 5 | 11 | –
COC1CCN(C(=O)N2CCC(=C(C#N)c3cccc(Cl)c3)CC2)CC1 [Compound 17, 2-(3-chlorophenyl)-2-(1-(4-methoxypiperidine-1-carbonyl)piperidin-4-ylidene)acetonitrile] | 98 | 31 | 8 | –

More lines, main results first:

inhibition at 0.5 µM [2] [%] | inhibition at 10 µM [3] [%] | inhibition at 10 µM [4] [%] | Structure (SMILES) | bilirubin levels of patients [1]
99 | 11 | 7 | N#CC(=C1CCN(C(=O)N2CCC(O)CC2)CC1)c1ccc(Cl)cc1 [Compound 18, 2-(4-chlorophenyl)-2-(1-(4-hydroxypiperidine-1-carbonyl)piperidin-4-ylidene)acetonitrile] | –
89 | 13 | 4 | N#CC(=C1CCN(C(=O)N2CC[C@H](O)C2)CC1)c1ccc(F)cc1 [Compound 9, (S)-2-(4-fluorophenyl)-2-(1-(3-hydroxypyrrolidine-1-carbonyl)piperidin-4-ylidene)acetonitrile] | –
98 | 22 | 6 | N#CC(=C1CCN(C(=O)N2CCC(CO)CC2)CC1)c1cccc2[nH]ncc12 [Compound 49, 2-(1-(4-(hydroxymethyl)piperidine-1-carbonyl)piperidin-4-ylidene)-2-(1H-indazol-4-yl)acetonitrile] | –
72 | 27 | 9 | N#CC(=C1CCN(C(=O)N2CC(CO)C2)CC1)c1ccc(F)cc1 [Compound 85, 2-(4-fluorophenyl)-2-(1-(3-(hydroxymethyl)azetidine-1-carbonyl)piperidin-4-ylidene)acetonitrile] | –
90 | 7 | 6 | N#CC(=C1CCN(C(=O)N2CCC(S(N)(=O)=O)CC2)CC1)c1ccc(C(F)(F)F)cc1 [Compound 148, 1-(4-(cyano(4-(trifluoromethyl)phenyl)methylene)piperidine-1-carbonyl)piperidine-4-sulfonamide] | –
96 | 10 | 11 | N#CC(=C1CCN(C(=O)N2CCC(O)CC2)CC1)c1ccc(F)cc1F [Compound 42, 2-(2,4-difluorophenyl)-2-(1-(4-hydroxypiperidine-1-carbonyl)piperidin-4-ylidene)acetonitrile] | –
